From patent publication US20200368198A1, “METHODS FOR INCREASING FERTILITY” (NEWSOUTH INNOVATIONS PTY LIMITED, priority 2017, published 2020)
Several values for one entry are separate records, joined by “and”; a condition that tells them apart may be missing. Identical values can stand only once.

Columns and labels:
oocytes [1] = experiment: Meiotic progression (GVBD, PBE) of harvested oocytes, doxorubicin with or without NMN; assay type: in vivo, mice; settings: doxorubicin and/or NMN
Description: Once harvested from ovaries, oocytes were stored in IBMX media to prevent progression into meiosis.

C57BL6 female mice [2] = experiment: Mating trial after doxorubicin with or without NMN co-treatment; assay type: in vivo; settings: for Number of mating rounds required to achieve pregnancy: the values are: cumulative % of females pregnant by round
Protocol: Following oocyte counting and analysis of oocyte meiotic progression, as well as a separate cohort of animals for histological ovarian analysis, a separate cohort of animals were treated as indicated, and mated with stud males of proven track record, to assess the ability of animals to deliver live births following chemotherapy treatment in the presence of absence of NMN co-treatment.

C57BL6 female mice [3] = experiment: Cumulus oocyte complex yield after PMSG, cisplatin with or without NMN; assay type: in vivo; settings: per mouse, single dose cisplatin 5 mg/kg i.p. and/or NMN 2 g/L drinking water, two months later
Protocol: To assess oocyte yield, and mice were hormonally stimulated to superovulated by intraperitoneal injection with 7.5 IU/mL of Pregnant Mare's Serum Gonadotropin (PMSG) (Folligon; Intervet, Boxmeer, Holland) to stimulate follicular growth. After 44-46 hours, ovaries were collected in HEPES-buffered minimum essential medium (aMEM; Gibco Life Technologies, Grand Island, N.Y.) supplemented with 50 µM of 3-isobuty-1-methylxanthine (IBMX) (Sigma aldrich, NSW, AU) (M2 medium) to maintain meitotic arrest at germinal vesicle stage. Cumulus oocyte complexes (COCs) were isolated from preovulatory follicles using a 27-gauge needle and collected using flame-pulled borosilicate Pasteur pipettes in M2 medium supplemented with 3 mg/ml bovine serum albumin (BSA; Sigma Aldrich, St. Louis, Mo.) and 100 μM IBMX (Sigma Aldrich). Cumulus oocyte complexes (COCs) were mechanically denuded of cumulus cells by pipetting, and the denuded oocytes were transferred to another dish containing a drop of fresh M2-medium plus IBMX on heat block with 37° C. with lid to protect oocytes from light. […]

oocytes [4] = experiment: Meiotic progression (GVBD, PBE) of harvested oocytes, cisplatin with or without NMN; assay type: in vivo, mice; settings: cisplatin and/or NMN
Protocol: Once harvested from ovaries, oocytes were stored in IBMX media to prevent progression into meiosis. Once released from IBMX, meiotic progression was assessed by the proportions of oocytes achieving germinal vesicle breakdown (GVBD) for meiosis I, and polar body extrusion (PBE) for meiosis II, with results shown in FIGS. 7 and 8 and Tables 2 and 3.
Again, as in Example 2 above, the oocytes which were harvested from these studies were allowed to progress down meiosis, in order to assess meiotic progression rates (FIGS. 16 and 17 and Table 7 and 8).

C57BL6 females = experiment: Reversal design: primordial follicle counts in ovarian histology sections; assay type: in vivo, mice; settings: doxorubicin 10 mg/kg i.p., NMN in drinking water started four weeks later for 4 weeks; per mouse
Description: Ovaries were dissected from freshly euthanased animals, and preserved in 10% neutral buffered formalin for 24 hr, followed by 70% ethanol, until embedding in paraffin blocks. Blocks were sectioned on a microtome and subjected to haematoxylin and eosin (H&E) staining. Primordial follicles were manually counted by a blinded investigator.
Next, we decided to investigate whether NMN treatment delivered some time following chemotherapy treatment could actively reverse chemotherapy induced infertility. […] Four weeks later, they received NMN in their drinking water, for another 4 weeks, prior to being euthanased for either oocyte studies or ovarian histological analysis. The rationale of this experimental design is to investigate whether NMN has the ability to induce regeneration of the ovary. According to the standard dogma of reproductive biology, mammals are born with a set number of follicles which are slowly released as oocytes over the course of a lifetime, with the ovaries incapable of regenerating new follicles.

oocytes / blastocysts = experiment: IVF of oocytes from 8 month old NMN treated mice: blastocyst formation and inner cell mass; assay type: in vivo
Protocol: In addition, the length of treatment with NAD raising compounds (e.g. NMN) positively correlates with improved fertility. Eight month old ex-breeder C57BL6 female mice, which are at an age of declining natural fertility, were treated with NMN through addition to drinking water (2 g/L) for 48 hours, 1 week, 2 weeks, and 4 weeks (6 per group). Animals were then treated with PMSG and then hCG to promote oocyte maturation and ovulation. MII stage oocytes were collected from the oviduct, and fertilized in vitro. Oocytes were then cultured into blastocysts for the next 6 days, at which point these blastocysts were subjected to differential staining to assess blastocyst cell number in either the inner cell mass or the trophectoderm. Inner cell mass cell number is accepted as an important predictor of implantation success rates.
This was measured through performing IVF in oocytes obtained from 8 month old C57BL6 ex-breeder female mice, which were assigned to the following 4 groups (6 per group) . . . • Daily oral gavage, saline control, normal drinking water • Daily oral gavage, 10 mg NMN in saline, normal drinking water • No gavage, normal (control) drinking water • No gavage, NMN in drinking water (2 g/L)
These animals were at an age at which fertility normally declines in this species. Animals were maintained on each of the above treatments for 10 days. Animals were then treated with PMSG and then hCG to promote oocyte maturation and ovulation. MII stage oocytes were collected from the oviduct, and fertilized in vitro. Oocytes were then cultured into blastocysts for the next 6 days, and blastocyst formation rates were assessed. Results at days 5 and six are shown in FIGS. 38 and 39, respectively. Blastocyst formation and hatching were assessed as indicators of developmental competence. Blastocyst formation is a clinically relevant outcome: during clinical IVF, blastocyst stage and hatching blastocyst stage embryos are preferentially transferred over earlier stage embryos into a person wishing to obtain a pregnancy.

NC(=O)c1ccc[n+]([C@@H]2O[C@H](COP(=O)([O-])O)[C@@H](O)[C@H]2O)c1 [NMN, nicotinamide mononucleotide]
Proportion of harvested oocytes achieving germinal vesicle breakdown (oocytes [1]; 1 h after release from IBMX): 17 % of total
Proportion of harvested oocytes achieving germinal vesicle breakdown (oocytes [1]; 2 h after release from IBMX): 67 % of total
Proportions of oocytes achieving polar body extrusion (oocytes [1]; 14 hr following GVBD): 79
Proportions of oocytes achieving polar body extrusion (oocytes [1]; 16 hr following GVBD): 50
Proportions of oocytes achieving polar body extrusion (oocytes [1]; 20 hr following GVBD): 80
Number of mating rounds required to achieve pregnancy (C57BL6 female mice [2]; Round 0): 0%
Number of mating rounds required to achieve pregnancy (C57BL6 female mice [2]; Round 1): 60%
Number of mating rounds required to achieve pregnancy (C57BL6 female mice [2]; Round 2): 80%
Number of mating rounds required to achieve pregnancy (C57BL6 female mice [2]; Round 3): 88%
Body weight of pups born to females receiving NMN (C57BL6 female mice [2]; day 12 of age): no difference in body weight
Numbers of cumulus oocyte complexes released from mice (C57BL6 female mice [3]): completely rescued and 16 and 14 and 17 and 12 and 13 and 11
Proportion of harvested oocytes achieving germinal vesicle breakdown (oocytes [4]; 1 h after release from IBMX): 45 % of total
Proportion of harvested oocytes achieving germinal vesicle breakdown (oocytes [4]; 2 h after release from IBMX): 83 % of total
Proportion of harvested oocytes achieving polar body extrusion (oocytes [4]; 14 hr following completion of GVBD): 48 % of total
Proportion of harvested oocytes achieving polar body extrusion (oocytes [4]; 16 hr following completion of GVBD): 60 % of total
Proportion of harvested oocytes achieving polar body extrusion (oocytes [4]; 20 hr following completion of GVBD): 91 % of total
Primordial follicle numbers in ovarian histology sections (C57BL6 females): 108 and 86 and 94 and 78
Efficacy on blastocyst formation after IVF: drinking water versus single daily oral gavage (oocytes / blastocysts; 8 month old C57BL6, NMN 2 g/L drinking water versus 10 mg daily gavage, 10 days): better efficacy
Efficacy versus length of NMN administration (inner cell mass cell number of blastocysts) (oocytes / blastocysts; NMN 2 g/L drinking water for 48 hours, 1, 2, 4 weeks): time dependent increase in efficacy
Ability of oocytes to form blastocysts following fertilisation in vitro (oocytes / blastocysts; oocytes from NMN treated versus untreated mice): enhanced ability to form blastocysts
